What was measured:
[1] = crystallinity of the complexes; assay type: physicochemical; settings: solid complex; i.e., substantially free of amorphous material
[2] = hygroscopic stability of the complexes; assay type: physicochemical; settings: solid complex; weight changes of the active ingredient during manufacture of capsules or tablets

COCC(=O)NC/C=C/c1ccc2ncnc(Nc3ccc(Oc4ccc(C)nc4)c(C)c3)c2c1.COCC(=O)NC/C=C/c1ccc2ncnc(Nc3ccc(Oc4ccc(C)nc4)c(C)c3)c2c1.O=C(O)CCC(=O)O.O=C(O)CCC(=O)O.O=C(O)CCC(=O)O [sesquisuccinate, Sesquisuccinate Complex of E-2-Methoxy-N-(3-{4-[3-methyl-4-(6-methyl-pyridin-3-yloxy)-phenylamino]-quinazolin-6-yl}-allyl)-acetamide]
crystallinity [1]: high crystallinity | hygroscopic stability [2]: substantially hygroscopically stable

COCC(=O)NC/C=C/c1ccc2ncnc(Nc3ccc(Oc4ccc(C)nc4)c(C)c3)c2c1.O=C(O)CC(=O)O.O=C(O)CC(=O)O [di-malonate, Di-malonate Complex of E-2-Methoxy-N-(3-{4-[3-methyl-4-(6-methyl-pyridin-3-yloxy)-phenylamino]-quinazolin-6-yl}-allyl)-acetamide]
crystallinity [1]: high crystallinity | hygroscopic stability [2]: substantially hygroscopically stable
